For 15 compounds, IC50 results are on record in patent US20170296550A1, “ARYL SULTAM DERIVATIVES AS RORc MODULATORS” (Genentech, Inc., priority 2013, published 2017).

This test addresses T1, RORc (Homo sapiens, UniProt P51449).
T1 construct: host or cells: E. coli
T1 sequence (P51449 269-508 limits assumed): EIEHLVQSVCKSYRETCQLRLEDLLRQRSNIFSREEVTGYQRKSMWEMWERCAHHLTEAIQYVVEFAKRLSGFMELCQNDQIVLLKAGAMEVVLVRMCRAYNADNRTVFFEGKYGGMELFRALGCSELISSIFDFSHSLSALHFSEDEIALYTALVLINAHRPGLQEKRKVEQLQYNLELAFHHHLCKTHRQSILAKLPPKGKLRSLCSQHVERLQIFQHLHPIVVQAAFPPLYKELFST
The test is described as follows: In Vitro RORc Ligand Binding Assay (25-[3H]hydroxycholesterol radioligand, filter plate). The note with it: RORc ligand binding domain 0.6 ug/mL; 6 nM 25-[3H]hydroxycholesterol; 3 h at 25° C. Here is the method: Example 68 In Vitro RORc Ligand Binding Assay
This assay was used to determine a compound's potency in inhibiting activity of RORc by determining, Kiapp, IC50, or percent inhibition values.
On day of the assay, 100 uL of 0.05% CHAPS (in deionized H2O) was added to all wells of the GFB Unifilter plate and allowed soak for 1 h. A wash buffer of 50 mM HEPES (pH 7.4), 150 mM NaCl, and 5 mM MgCl2 was prepared to wash the filter plate. To prepare an assay buffer, BSA was added to the wash buffer to reach 0.01% and DTT was added to reach 1 mM.
For IC50 mode, 10 mM compound stocks were serially diluted in DMSO with DMSO to give 20× required final concentration in DMSO (15 uL compound+30 uL DMSO). The 20× compound stocks were diluted in DMSO with Assay Buffer 4-fold to reach 5× the final test concentration in 25% DMSO (10 uL compound+30 uL Assay Buffer). Solutions were mixed by aspiration several times with a pipette set on 50 uL volume. For the assay, 10 uL of 5× compound stock solutions in 25% DMSO were added to the assay plate in duplicate.
For two point screening, 10 mM stock compound solutions were diluted in DMSO to obtain 200 uM (20× the high test concentration) and then diluted 10-fold further to reach 20 uM (20× the low test concentration). The 20× stocks were diluted 4-fold with Assay Buffer (10 uL compound+30 uL Assay Buffer) to reach 5× the test concentrations (50 uM and 5 uM) and 10 uL were added to two assay plates for the duplicate wells. With each concentration tested on 2 plates, each set of 80 compounds used 4 assay plates (1 uM and 10 uM, with n=2).
25-hydroxycholesterol (1 uM) was used to determine the level of NSB signal is prepared in DMSO as for compounds above, then diluted in Assay Buffer to give a final concentration of 5 uM. For 25-hydroxycholesterol in 25% DMSO/75% Assay Buffer; 10 uL per well was used for NSB samples. Wells for Total Binding and No Receptor sample determination contained 10 uL of 25% DMSO/75% Assay Buffer per well.
Radioligand (25-[^3H]hydroxycholesterol) Preparation
25-[^3H]hydroxycholesterol was dilute in Assay Buffer to obtain 15 nM and vortex to mix. Add 20 uL to all wells to reach 6 nM final in the assay.
Stock receptor solution was diluted in assay buffer to obtain 1.5 ug/mL in Assay Buffer. 20 uL was added to all wells. For No R samples, 20 uL Assay Buffer was substituted for receptor solution.
Assay plates were 96-well polypropylene V-bottom plates. 10 uL of 5× compound in 25% DMSO/75% Assay Buffer was added to Test wells. 10 uL of 25% DMSO/75% Assay Buffer was added to Total Binding or No Receptor wells. 10 uL of 5 uM 25-hydroxycholesterol in 25% DMSO/75% Assay Buffer was added to NSB wells. 20 uL of 15 nM 25-[^3H]hydroxycholesterol prepared in Assay Buffer was added to all wells. 20 uL of 1.5 ug/mL RORc receptor was added to wells (or […] Assay Buffer to No R wells). Following addition to the wells, the plates were incubated 3 h at 25° C.
Using a Packard Filtermate Harvester, the filter plate were washed 4 times following transfer of the incubated samples. Plates were dry-filtered completely (2 h at 50° C. or overnight at room temperature). 50 uL Microscint 0 was added to all wells and read on Topcount protocol Inverted.
Final concentrations were as follows: 50 mM HEPES buffer (pH 7.4); 150 mM NaCl; 1 mM DTT; 5 mM MgCl2; 0.01% BSA; 5% DMSO; 0.6 ug/mL RORc receptor; 6 nM 25-[^3H]hydroxycholesterol. For NSB wells, 1 uM 25-hydroxycholesterol was also present.
In the case of `C[C@H]1CCC(c2ccccc2)S(=O)(=O)N1Cc1ccc(-c2ccncc2)cc1F` (stereo partly drawn) [Example 34, (3S)-2-(2-Fluoro-4-pyridin-4-yl-benzyl)-3-methyl-6-phenyl-[1,2]thiazinane 1,1-dioxide], the IC50 (commonly the midpoint of a concentration-inhibition curve) amounted to 463 nM.

In turn, `Cc1noc(C)c1-c1ccc(CN2[C@@H](C)CCC(c3ccccc3)S2(=O)=O)c(F)c1` (stereo partly drawn) [Example 35, (3S)-2-[4-(3,5-Dimethyl-isoxazol-4-yl)-2-fluoro-benzyl]-3-methyl-6-phenyl-[1,2]thiazinane 1,1-dioxide] showed a 50% inhibitory concentration (IC50) of 534 nM.

For `C[C@H]1CCC(c2ccccc2)S(=O)(=O)N1Cc1ccc(C(=O)NCCn2ccnc2)cc1` (stereo partly drawn) [Example 6, N-(2-Imidazol-1-yl-ethyl)-4-((3S)-3-methyl-1,1-dioxo-6-phenyl-[1,2]thiazinan-2-ylmethyl)-benzamide], the IC50 amounted to 3920 nM.

Compound `C[C@H]1CCC(c2ccccc2)S(=O)(=O)N1Cc1ccc(-c2ccc3nncn3c2)cc1F` (stereo partly drawn) [Example 5, 6-[3-Fluoro-4-((3S)-3-methyl-1,1-dioxo-6-phenyl-[1,2]thiazinan-2-ylmethyl)-phenyl]-[1,2,4]triazolo[4,3-a]pyridine] returned an IC50 of 454 nM.

Regarding `C[C@H]1CCC(c2ccccc2)S(=O)(=O)N1Cc1ccc(C(=O)NCc2noc(C(=O)N(C)C)n2)cc1` (stereo partly drawn) [Example 15, 3-{[4-((3S)-3-Methyl-1,1-dioxo-6-phenyl-[1,2]thiazinan-2-ylmethyl)-benzoylamino]-methyl}-[1,2,4]oxadiazole-5-carboxylic acid dimethylamide], the 50% inhibitory concentration (IC50) is 5190 nM.

In turn, `C[C@H]1CCC(c2ccccc2)S(=O)(=O)N1Cc1ccc(-c2cnc(S(C)(=O)=O)nc2)cc1F` (stereo partly drawn) [Example 40, (3S)-2-[2-Fluoro-4-(2-mcthanesulfonyl-pyrimidin-5-yl)-benzyl]-3-methyl-6-phenyl-[1,2]thiazinane 1,1-dioxide] registered a concentration for half-maximal inhibition (IC50) of 989 nM.

In the case of `Cc1cnc(COc2ccc(CN3[C@@H](C)CCC(c4ccccc4)S3(=O)=O)cc2)nc1` (stereo partly drawn) [Example 51, (3S)-3-Methyl-2-[4-(5-methyl-pyrimidin-2-ylmethoxy)-benzyl]-6-phenyl-[1,2]thiazinane 1,1-dioxide], the IC50 was 1180 nM.

`C[C@H]1CCC(c2ccccc2)S(=O)(=O)N1Cc1ccc(-c2ccc(C#N)nc2)cc1F` (stereo partly drawn) [Example 24, 5-[3-Fluoro-4-((3S)-3-methyl-1,1-dioxo-6-phenyl-[1,2]thiazinan-2-ylmethyl)-phenyl]-pyridine-2-carbonitrilc] showed an IC50 of 110 nM.

Compound `C[C@H]1CCC(c2ccccc2)S(=O)(=O)N1Cc1ccc(-c2ccc(C(=O)N(C)C)cc2)cc1F` (single isomer, unassigned) [Example 30] had an IC50 of 160 nM.

The compound `C[C@H]1CCC(c2ccccc2)S(=O)(=O)N1Cc1ccc(C(=O)NCc2noc(C(N)=O)n2)cc1` (stereo partly drawn) [Example 14, 3-{[4-((3S)-3-Methyl-1,1-dioxo-6-phenyl-[1,2]thiazinan-2-ylmethyl)-benzoylamino]-methyl}-[1,2,4]oxadiazole-5-carboxylic acid amide] returned an IC50 of 1390 nM.

For `Cc1ncccc1COc1ccc(CN2[C@@H](C)CCC(c3ccccc3)S2(=O)=O)cc1` (stereo partly drawn) [Example 52, (3S)-3-Methyl-2-[4-(2-methyl-pyridin-3-ylmethoxy)-benzyl)-6-phenyl-[1,2]thiazinane 1,1-dioxide], the half-inhibitory concentration (IC50) was 57 nM.

Consider `C[C@H]1CC[C@H](c2ccccc2)S(=O)(=O)N1Cc1ccc(C(=O)NCCCn2ccnc2)cc1` [Example 8, N-(3-Imidazol-1-yl-propyl)-4-((3S)-3-methyl-1,1-dioxo-6-phenyl-[1,2]thiazinan-2-ylmethyl)-benzamide], for which the half-inhibitory concentration (IC50) is 4980 nM.

`C[C@H]1CCC(c2ccccc2)S(=O)(=O)N1Cc1ccc(OCc2cncn2C)cc1` (stereo partly drawn) [Example 49, (3S)-3-Methyl-2-[4-(3-methyl-3H-imidazol-4-ylmethoxy)-benzyl]-6-phenyl-[1,2]thiazinane 1,1-dioxide] registered an IC50 of 295 nM.

`C[C@H]1CCC(c2ccccc2)S(=O)(=O)N1Cc1ccc(OCc2ccncc2)cc1` (single isomer, unassigned) [Example 57] returned a 50% inhibitory concentration (IC50) of 114 nM.

In the case of `C[C@H]1CCC(c2ccccc2)S(=O)(=O)N1Cc1ccc(OCCn2ccnc2)cc1` (stereo partly drawn) [Example 56, (3S)-2-[4-(2-Imidazol-1-yl-ethoxy)-benzyl]-3-methyl-6-phenyl-[1,2]thiazinane 1,1-dioxide], the IC50 was found to be 316 nM.
